From ChEMBL document CHEMBL1201862, “PubChem BioAssay data set” (2004)
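Interpolation was linear, between the two tested concentrations surrounding the appropriate level; five concentrations were tested over 48 hours in 96-well plates. GI50 is the concentration that inhibits growth by half.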 Calls of active or inactive are those of the source. Cut-off read from the data, not from the text of the source: active = GI50 up to about 1.1 µM and inactive = higher.

Tests used:
Assay in all cases: NCI tumour cell line growth inhibition, 48 h
MDA-MB-435 = tested on: MDA-MB-435
LOX IMVI = tested on: LOX IMVI
IGROV-1 = tested on: IGROV-1
SK-OV-3 = tested on: SK-OV-3
MOLT-4 = tested on: MOLT-4
SF-539 = tested on: SF-539
COLO 205 = tested on: COLO 205
HCT-116 = tested on: HCT-116
NCI-H522 = tested on: NCI-H522
NCI/ADR-RES = tested on: NCI/ADR-RES
CCRF-CEM = tested on: CCRF-CEM
K562 = tested on: K562
SN12C = tested on: SN12C
HOP-92 = tested on: HOP-92
ACHN = tested on: ACHN
Malme-3M = tested on: Malme-3M
SK-MEL-2 = tested on: SK-MEL-2
UACC-257 = tested on: UACC-257
RPMI-8226 = tested on: RPMI-8226
SK-MEL-5 = tested on: SK-MEL-5

Measured: GI50

COc1ccc(N2C(=O)C3c4[nH]c5ccccc5c4C4c5ccccc5CC4C3C2=O)cc1 (configuration not stated)
inactive: MDA-MB-435 > 100 µM | LOX IMVI > 100 µM | IGROV-1 > 100 µM | SK-OV-3 > 100 µM | MOLT-4 > 100 µM | SF-539 > 100 µM | COLO 205 > 100 µM | HCT-116 > 100 µM | NCI-H522 > 100 µM | NCI/ADR-RES > 100 µM | CCRF-CEM > 100 µM | K562 > 100 µM | SN12C > 100 µM | HOP-92 > 100 µM | ACHN > 100 µM | Malme-3M > 100 µM | SK-MEL-2 > 100 µM | UACC-257 > 100 µM

Cc1ccccc1NC(=O)C(=O)CC(=O)c1sc(Nc2ccccc2[N+](=O)[O-])nc1C
inactive: MDA-MB-435 29 µM | LOX IMVI 37.4 µM | IGROV-1 41.4 µM | SK-OV-3 25.2 µM | MOLT-4 51.1 µM | RPMI-8226 27.9 µM | SF-539 29.9 µM | COLO 205 86.1 µM | SK-MEL-5 27.8 µM | HCT-116 29.7 µM | NCI-H522 27.7 µM | NCI/ADR-RES 41.2 µM | K562 49.2 µM | SN12C 50.6 µM | HOP-92 29.3 µM | ACHN 20.3 µM | SK-MEL-2 56.6 µM | UACC-257 29.9 µM

CC(C(=O)N1c2ccccc2Sc2ccccc21)N1c2ccccc2Sc2ccccc21 (configuration not stated)
inactive: MDA-MB-435 > 100 µM | LOX IMVI > 100 µM | IGROV-1 79.8 µM | SK-OV-3 > 100 µM | MOLT-4 42.9 µM | RPMI-8226 > 100 µM | SF-539 > 100 µM | COLO 205 85.7 µM | SK-MEL-5 57.5 µM | HCT-116 > 100 µM | NCI/ADR-RES > 100 µM | CCRF-CEM 57.1 µM | K562 84.1 µM | SN12C > 100 µM | HOP-92 26.2 µM | ACHN > 100 µM | Malme-3M > 100 µM | SK-MEL-2 > 100 µM | UACC-257 > 100 µM

O=C(CC(C(=O)c1ccsc1)c1ccc2c(c1)OCO2)c1ccccc1 (configuration not stated)
inactive: MDA-MB-435 > 100 µM | LOX IMVI > 100 µM | IGROV-1 > 100 µM | SK-OV-3 > 100 µM | MOLT-4 > 100 µM | RPMI-8226 > 100 µM | SF-539 > 100 µM | COLO 205 > 100 µM | SK-MEL-5 95.9 µM | HCT-116 > 100 µM | NCI-H522 59 µM | NCI/ADR-RES > 100 µM | CCRF-CEM > 100 µM | K562 > 100 µM | SN12C > 100 µM | HOP-92 > 100 µM | ACHN > 100 µM | UACC-257 > 100 µM

C=C(C)C(=O)O[C@H]1C[C@@]23O[C@@H]2CCC(=C[C@H]2OC(=O)C(=C)[C@H]12)COC3O (some centres not stated)
inactive: MDA-MB-435 44.3 µM | LOX IMVI 14.9 µM | IGROV-1 > 100 µM | SK-OV-3 > 100 µM | MOLT-4 28.7 µM | RPMI-8226 23.4 µM | SF-539 > 100 µM | COLO 205 21.2 µM | SK-MEL-5 > 100 µM | HCT-116 18.9 µM | NCI-H522 14.4 µM | NCI/ADR-RES 44.6 µM | CCRF-CEM 17.2 µM | K562 20.2 µM | SN12C 49 µM | HOP-92 21.9 µM | ACHN 39.9 µM | SK-MEL-2 70.3 µM | UACC-257 > 100 µM
